Here are results for 39 molecules from ChEMBL document CHEMBL5046250, “Discovery of Sortase A covalent inhibitors with benzofuranene cyanide structures as potential antibacterial agents against Staphylococcus aureus” (Eur J Med Chem, 2022).

The source made the active and inactive calls. The calls are words filed in the database; no cut-off is given here. Bounds are passed on as bounds.

A short description of experiment [1]: Inhibition of Staphylococcus aureus sortase A using Abz-LPATG-Dap(DNP)-NH2 as substrate preincubated for 1 hr followed by substrate addition by FRET assay.
Experiment [2] deals with Staphylococcus aureus. The experiment is described as follows: Antibacterial activity against Staphylococcus aureus assessed as inhibition of bacterial invasion in HEK293T cells at 100 uM measured after 2 hrs by flow cytometry relative to control. It counts as functional, HEK-293T. More on the design: scale not given: the % may be the effect or the level left. On the technique in general: A flow cytometer gives signals particle by particle.

Experiment [3] concerns Staphylococcus aureus. As to the kind of experiment: Antibiofilm activity against Staphylococcus aureus assessed as inhibition of biofilm formation measured after 15 to 18 hrs by crystal violet staining assay. It counts as functional, organism-based.
The subject of experiment [4] is Staphylococcus aureus. The experiment is described as follows: Antibacterial activity against Staphylococcus aureus assessed as inhibition of bacterial invasion in HEK293T cells at 25 uM measured after 2 hrs by flow cytometry relative to control. Type of experiment: functional, HEK-293T. More on the design: scale not given: the % may be the effect or the level left.

For experiment [5], the system named is Staphylococcus aureus. As to the kind of experiment: Antibacterial activity against Staphylococcus aureus assessed as inhibition of bacterial invasion in HEK293T cells at 12.5 uM measured after 2 hrs by flow cytometry relative to control. Type of experiment: functional, HEK-293T. Details: scale not given: the % may be the effect or the level left.
The subject of experiment [6] is Staphylococcus aureus. The experiment is described as follows: Antibacterial activity against Staphylococcus aureus assessed as inhibition of bacterial invasion in HEK293T cells at 50 uM measured after 2 hrs by flow cytometry relative to control. It counts as functional, HEK-293T. Details: scale not given: the % may be the effect or the level left.
Experiment [7] deals with Staphylococcus aureus. The experiment is described as follows: Antibiofilm activity against Staphylococcus aureus assessed as inhibition of biofilm formation measured after 15 to 18 hrs in the presence of quercetin by crystal violet staining assay. It counts as functional, organism-based.
In experiment [8] the test system is Staphylococcus aureus. The experiment is described as follows: Antibacterial activity against Staphylococcus aureus assessed as inhibition of bacterial invasion in HEK293T cells at 6.25 uM measured after 2 hrs by flow cytometry relative to control. It counts as functional, HEK-293T. Details: scale not given: the % may be the effect or the level left.
Experiment [9] relates to Staphylococcus aureus. As to the kind of experiment: Inhibition of Staphylococcus aureus sortase A assessed as reduction in SpA expression at 100 uM measured after overnight incubation by flow cytometry relative to control.
The subject of experiment [10] is Staphylococcus aureus. As to the kind of experiment: Binding affinity to staphylococcus aureus sortase A assessed as covalent adduct formation by UPLC-TOF-MS analysis.
Experiment [11] has as its system Staphylococcus aureus. The experiment is described as follows: Binding affinity to staphylococcus aureus sortase A assessed as increase in molecular mass by LC-MS/MS analysis.
For experiment [12], the system named is Staphylococcus aureus. As to the kind of experiment: Binding affinity to staphylococcus aureus sortase A assessed as covalent adduct formation at Cys184 by LC-MS/MS analysis.

A word on the IC50: it is the concentration at which inhibition is half-maximal. `Cc1cc(C)c(/C=C(\C#N)c2ccc(-c3oc4ccc(Cl)cc4c3C(=O)NCC(C)C)cc2)c(C)c1` had an IC50 in [1] of 37.9 µM.

Take `COc1ccc(OC)c(/C=C(\C#N)c2ccc(-c3oc4c(OC)cccc4c3C(=O)NCC(C)C)cc2)c1`: the IC50 in [1] is 52.8 µM.

For the molecule `COc1ccc(/C=C(\C#N)c2ccc(-c3oc4ccccc4c3C(=O)NCC(C)C)cc2)cc1OC`, the midpoint of inhibition in experiment [1], the IC50, lay at 9.6 µM.

Regarding `CC(C)CNC(=O)c1c(-c2ccc(/C(C#N)=C/c3ccc(Br)cc3)cc2)oc2ccc(Cl)cc12`, the IC50 in experiment [1] stood at 16.4 µM.

In turn, `COc1ccc(OC)c(/C=C(\C#N)c2ccc(-c3oc4ccc(Cl)cc4c3C(=O)NCC(C)C)cc2)c1` registered an IC50 in [1] of 15.5 µM.

`Cc1ccc(/C=C(\C#N)c2ccc(-c3oc4ccc(Cl)cc4c3C(=O)NCC(C)C)cc2)cc1C` displayed an IC50 in experiment [1] of more than 100 µM.

For `COc1cccc2c(C(=O)NCC(C)C)c(-c3ccc(/C(C#N)=C/c4ccc(Cl)cc4)cc3)oc12`, the IC50 in [1] turned out to be 5.9 µM.

For the molecule `COc1ccc(OC)c(/C=C(\C#N)c2ccc(-c3oc4ccccc4c3C(=O)NCC(C)C)cc2)c1`, the midpoint of inhibition in [1], the IC50, lay at 21.8 µM.

Take `COc1ccc(/C=C(\C#N)c2ccc(-c3oc4c(OC)cccc4c3C(=O)NCC(C)C)cc2)cc1OC`: the IC50 in [1] came to 14.5 µM.

For the molecule `COc1ccc(/C=C(\C#N)c2ccc(-c3oc4ccccc4c3C(=O)NCC(C)C)cc2)cc1`, the IC50 in experiment [1] was 11.9 µM.

Turning to `COc1cccc2c(C(=O)NCC(C)C)c(-c3ccc(/C(C#N)=C/c4ccc(C)c(C)c4)cc3)oc12`, the IC50 in [1] was more than 100 µM.

Consider `CC(C)CNC(=O)c1c(-c2ccc(C(C#N)Cc3ccc(O)cc3)cc2)oc2ccccc12` (stereo unspecified), for which the IC50 is 7.9 µM in experiment [1] and 14.3 µM in the experiment on Staphylococcus aureus [3]. Further, the Activity with Staphylococcus aureus [2] was determined as 2.8%.

The molecule `CCc1ccc(/C=C(\C#N)c2ccc(-c3oc4ccc(Cl)cc4c3C(=O)NCC(C)C)cc2)cc1` showed an IC50 in experiment [1] of 13.8 µM.

Molecule `COc1cccc2c(C(=O)NCC(C)C)c(-c3ccc(/C(C#N)=C/c4ccccc4C(=O)O)cc3)oc12` gave an IC50 in [1] of 28.4 µM.

Molecule `CC(C)CNC(=O)c1c(-c2ccc(C(C#N)Cc3ccc(OCc4ccccc4)cc3)cc2)oc2ccccc12` (stereo unspecified) showed an IC50 in experiment [1] of 15 µM.

On to `CCc1ccc(/C=C(\C#N)c2ccc(-c3oc4ccccc4c3C(=O)NCC(C)C)cc2)cc1`, for which it took 9.4 µM to reach half-maximal inhibition in [1] (IC50).

In [1], `Cc1ccc(/C=C(\C#N)c2ccc(-c3oc4ccccc4c3C(=O)NCC(C)C)cc2)cc1C` gave an IC50 of 17.5 µM.

With `CC(C)CNC(=O)c1c(-c2ccc(/C(C#N)=C/c3ccc(OCc4ccccc4)cc3)cc2)oc2ccccc12`, the IC50 in [1] was 6 µM.

Regarding `Cc1ccc(/C=C(\C#N)c2ccc(-c3oc4ccccc4c3C(=O)NCC(C)C)cc2)cc1`, in experiment [1], it took 14.1 µM to reach half-maximal inhibition (IC50).

Consider `CC(C)CNC(=O)c1c(-c2ccc(/C(C#N)=C/c3ccc(Br)cc3)cc2)oc2ccccc12`, for which half-maximal inhibition in experiment [1] (IC50) was put at 19.1 µM.

Regarding `CC(C)CNC(=O)c1c(-c2ccc(/C(C#N)=C/c3ccc(C(F)(F)F)cc3)cc2)oc2ccccc12`, the IC50 in experiment [1] came to 12.2 µM.

`CC(C)CNC(=O)c1c(-c2ccc(/C(C#N)=C/c3ccc(F)cc3)cc2)oc2ccccc12`: inhibition in experiment [1] was half-maximal at 19.7 µM (IC50).

Consider `CC(C)CNC(=O)c1c(-c2ccc(/C(C#N)=C/c3ccc(Cl)cc3)cc2)oc2ccccc12`, for which half-maximal inhibition in [1] (IC50) was put at 9.8 µM.

Consider `CC(C)CNC(=O)c1c(-c2ccc(/C(C#N)=C/c3ccccc3)cc2)oc2ccccc12`, for which the IC50 in [1] was determined as 8.8 µM; in the experiment with Staphylococcus aureus [3], 19.7 µM. For the same molecule, the Activity in the experiment on Staphylococcus aureus [2] amounted to 17.9%.

For `COc1cccc2c(C(=O)NCC(C)C)c(-c3ccc(/C(C#N)=C/c4ccc(Br)cc4)cc3)oc12`, the IC50 in experiment [1] worked out at 15.5 µM.

In the case of `COc1cccc2c(C(=O)NCC(C)C)c(-c3ccc(/C(C#N)=C/c4ccc(C)cc4)cc3)oc12`, the IC50 in [1] is 10.1 µM.

In turn, `COc1ccc(/C=C(\C#N)c2ccc(-c3oc4ccc(Cl)cc4c3C(=O)NCC(C)C)cc2)cc1` gave an IC50 in [1] of 64.1 µM.

On to `COc1ccc(/C=C(\C#N)c2ccc(-c3oc4c(OC)cccc4c3C(=O)NCC(C)C)cc2)cc1`, for which the IC50 in [1] is 12.1 µM.

With `CCc1ccc(/C=C(\C#N)c2ccc(-c3oc4c(OC)cccc4c3C(=O)NCC(C)C)cc2)cc1`, in [1], the midpoint of inhibition, the IC50, lay at 48.6 µM.

With `Cc1ccc(/C=C(\C#N)c2ccc(-c3oc4ccc(Cl)cc4c3C(=O)NCC(C)C)cc2)cc1`, the IC50 in experiment [1] was found to be 47.1 µM.

For the molecule `CC(C)CNC(=O)c1c(-c2ccc(C(C#N)Cc3ccc(O)c(O)c3)cc2)oc2ccccc12` (stereo unspecified), the IC50 in experiment [1] was 13.7 µM.

As to `CC(C)CNC(=O)c1c(-c2ccc(/C(C#N)=C/c3ccccc3C(=O)O)cc2)oc2ccccc12`, in [1], the IC50 was determined as 9.7 µM.

Molecule `CC(C)CNC(=O)c1c(-c2ccc(/C(C#N)=C/c3ccccc3)cc2)oc2ccc(Cl)cc12` gave an IC50 in experiment [1] of 29.9 µM.

Molecule `COc1ccc(/C=C(\C#N)c2ccc(-c3oc4ccc(Cl)cc4c3C(=O)NCC(C)C)cc2)cc1OC` had an IC50 in [1] of 49.1 µM.

Regarding `Cc1cc(C)c(/C=C(\C#N)c2ccc(-c3oc4ccccc4c3C(=O)NCC(C)C)cc2)c(C)c1`, in [1], the IC50 came out at 32.2 µM.

Usually inhibition stands for the share of the control response that was lost under treatment. With `CC(C)CNC(=O)c1c(-c2ccc(/C(C#N)=C/c3ccc(OCc4ccccc4)c(OCc4ccccc4)c3)cc2)oc2ccccc12`, the Activity with Staphylococcus aureus [4] stood at 16%; in the experiment with Staphylococcus aureus [5], 7.4%; in the experiment with Staphylococcus aureus [2], 24%; in the experiment with Staphylococcus aureus [6], 19.1%; with Staphylococcus aureus [8], 2.9%. Besides, the IC50 is 3.3 µM in [1], 2.1 µM in the experiment on Staphylococcus aureus [3] and 2.08 µM in the experiment with Staphylococcus aureus [7]. The inhibition in the experiment with Staphylococcus aureus [9] worked out at 26.5%.

As for `C=C(C#N)c1ccc(-c2oc3ccccc3c2C(=O)NCC(C)C)cc1`, the result in the experiment on Staphylococcus aureus [10] and in the experiment with Staphylococcus aureus [12] was Active. Further, the Activity in the experiment with Staphylococcus aureus [11] was determined as 344 Da. In experiment [1], this molecule displayed an IC50 of 15.2 µM.

`COc1cccc2c(C(=O)NCC(C)C)c(-c3ccc(/C(C#N)=C/c4ccccc4)cc3)oc12` had an IC50 in [1] of 11.9 µM.

`CC(C)CNC(=O)c1c(-c2ccc(/C(C#N)=C/c3ccc(Cl)cc3)cc2)oc2ccc(Cl)cc12`: the values for the IC50 (in experiment [1]; in the experiment on Staphylococcus aureus [3]) were 6.8 µM and 54.2 µM, respectively. In addition, the Activity in the experiment on Staphylococcus aureus [2] was determined as 4%.
